Reference: ChEMBL document CHEMBL4831544, “Discovery of IHMT-EZH2-115 as a Potent and Selective Enhancer of Zeste Homolog 2 (EZH2) Inhibitor for the Treatment of B-Cell Lymphomas” (J Med Chem, 2021)

Key:
[1] = target: Histone-lysine N-methyltransferase EHMT2 (Homo sapiens) (UniProt Q96KQ7); assay: Inhibition of G9A (unknown origin) at 10 uM using SAM as substrate measured up to 960 mins by AlphaScreen microplate reader assay relative to control; details: time min <=960
[2] = Apparent volume of distribution in rat at 1 mg/kg, iv; type: ADME, organism-based; details: in vivo, read-out: Vz
[3] = Toxicity in NCG mouse xenografted with human Pfeiffer cells harboring EZH2 A677G mutant assessed as effect on body weight at 50 to 200 mg/kg, po BID via gavage measured after 28 days; type: organism-based; details: in vivo, 672 h, dose 50-200 mg/kg, time 28 day
[4] = Oral bioavailability in rat at 10 mg/kg; type: ADME, organism-based; details: in vivo
[5] = system: Histone-lysine N-methyltransferase EZH2 (Homo sapiens), Q15910 [A677G]; assay: Inhibition of EZH2 A677G mutant (unknown origin) at 10 uM using SAM as substrate measured up to 960 mins by AlphaScreen microplate reader assay relative to control; details: time min <=960
[6] = target: N-lysine methyltransferase KMT5A (Homo sapiens) (UniProt Q9NQR1); assay: Inhibition of SET8 (unknown origin) at 10 uM using SAM as substrate measured up to 960 mins by AlphaScreen microplate reader assay relative to control; details: time min <=960
[7] = target: Histone-lysine N-methyltransferase EHMT1 (Homo sapiens) (UniProt Q9H9B1); assay: Inhibition of GLP (unknown origin) at 10 uM using SAM as substrate measured up to 960 mins by AlphaScreen microplate reader assay relative to control; details: time min <=960
[8] = Cmax in rat at 1 mg/kg, iv; type: ADME, organism-based; set-up: route intravenous, dose 1 mg/kg; details: in vivo
[9] = system: Histone-lysine N-methyltransferase EZH2 (Homo sapiens), Q15910 [Y641C]; assay: Inhibition of EZH2 Y641C mutant (unknown origin) at 10 uM using SAM as substrate measured up to 960 mins by AlphaScreen microplate reader assay relative to control; details: time min <=960
[10] = Clearance in mouse at 10 mg/kg, po measured up to 24 hrs by LC-MS/MS analysis; type: ADME, organism-based; details: in vivo
[11] = target: Histone-arginine methyltransferase CARM1 (Homo sapiens) (UniProt Q86X55); assay: Inhibition of PRMT4 (unknown origin) at 10 uM using SAM as substrate measured up to 960 mins by AlphaScreen microplate reader assay relative to control; details: time min <=960
KARPAS-422 = assay: Antitumor activity against human KARPAS-422 cells harboring EZH2 Y641N mutant xenografted in NCG mouse assessed as tumor growth inhibition at 50 mg/kg, po BID via gavage measured after 28 days relative to control; type: functional; details: KARPAS-422, po, 672 h, time 28 day, read-out: TGI
[12] = target: Histone-lysine N-methyltransferase SETD7 (Homo sapiens) (UniProt Q8WTS6); assay: Inhibition of SET7/9 (unknown origin) at 10 uM using SAM as substrate measured up to 960 mins by AlphaScreen microplate reader assay relative to control; details: time min <=960
[13] = system: Histone-lysine N-methyltransferase EZH2 (Homo sapiens), Q15910 [Y641H]; assay: Inhibition of EZH2 Y641H mutant (unknown origin) at 10 uM using SAM as substrate measured up to 960 mins by AlphaScreen microplate reader assay relative to control; details: time min <=960
Chain of Histone-lysine N-methyltransferase EZH2 (Homo sapiens), Q15910 [Y641H] (Q15910 whole entry Y641H): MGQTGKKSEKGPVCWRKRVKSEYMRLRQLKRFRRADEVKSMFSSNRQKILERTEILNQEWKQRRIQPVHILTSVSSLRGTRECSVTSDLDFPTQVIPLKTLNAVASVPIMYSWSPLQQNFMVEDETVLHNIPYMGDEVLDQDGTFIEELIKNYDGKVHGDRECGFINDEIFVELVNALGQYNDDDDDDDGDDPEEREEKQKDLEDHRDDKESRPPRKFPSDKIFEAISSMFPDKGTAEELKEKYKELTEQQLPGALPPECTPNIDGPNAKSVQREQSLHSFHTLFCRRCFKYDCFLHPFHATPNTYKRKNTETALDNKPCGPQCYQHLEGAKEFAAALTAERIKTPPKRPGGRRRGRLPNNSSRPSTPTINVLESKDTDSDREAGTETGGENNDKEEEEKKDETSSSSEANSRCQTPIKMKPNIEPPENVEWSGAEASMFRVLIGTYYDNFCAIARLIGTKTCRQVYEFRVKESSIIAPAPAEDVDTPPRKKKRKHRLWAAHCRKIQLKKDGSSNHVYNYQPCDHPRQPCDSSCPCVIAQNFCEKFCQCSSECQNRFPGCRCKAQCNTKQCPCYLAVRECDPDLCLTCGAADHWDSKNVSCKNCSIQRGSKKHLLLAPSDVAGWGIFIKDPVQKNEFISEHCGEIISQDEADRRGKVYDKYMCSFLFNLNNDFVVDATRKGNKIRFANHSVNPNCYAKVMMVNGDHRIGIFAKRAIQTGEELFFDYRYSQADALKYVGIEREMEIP

Chain of Histone-lysine N-methyltransferase EHMT2 (Homo sapiens) (Q96KQ7 whole entry): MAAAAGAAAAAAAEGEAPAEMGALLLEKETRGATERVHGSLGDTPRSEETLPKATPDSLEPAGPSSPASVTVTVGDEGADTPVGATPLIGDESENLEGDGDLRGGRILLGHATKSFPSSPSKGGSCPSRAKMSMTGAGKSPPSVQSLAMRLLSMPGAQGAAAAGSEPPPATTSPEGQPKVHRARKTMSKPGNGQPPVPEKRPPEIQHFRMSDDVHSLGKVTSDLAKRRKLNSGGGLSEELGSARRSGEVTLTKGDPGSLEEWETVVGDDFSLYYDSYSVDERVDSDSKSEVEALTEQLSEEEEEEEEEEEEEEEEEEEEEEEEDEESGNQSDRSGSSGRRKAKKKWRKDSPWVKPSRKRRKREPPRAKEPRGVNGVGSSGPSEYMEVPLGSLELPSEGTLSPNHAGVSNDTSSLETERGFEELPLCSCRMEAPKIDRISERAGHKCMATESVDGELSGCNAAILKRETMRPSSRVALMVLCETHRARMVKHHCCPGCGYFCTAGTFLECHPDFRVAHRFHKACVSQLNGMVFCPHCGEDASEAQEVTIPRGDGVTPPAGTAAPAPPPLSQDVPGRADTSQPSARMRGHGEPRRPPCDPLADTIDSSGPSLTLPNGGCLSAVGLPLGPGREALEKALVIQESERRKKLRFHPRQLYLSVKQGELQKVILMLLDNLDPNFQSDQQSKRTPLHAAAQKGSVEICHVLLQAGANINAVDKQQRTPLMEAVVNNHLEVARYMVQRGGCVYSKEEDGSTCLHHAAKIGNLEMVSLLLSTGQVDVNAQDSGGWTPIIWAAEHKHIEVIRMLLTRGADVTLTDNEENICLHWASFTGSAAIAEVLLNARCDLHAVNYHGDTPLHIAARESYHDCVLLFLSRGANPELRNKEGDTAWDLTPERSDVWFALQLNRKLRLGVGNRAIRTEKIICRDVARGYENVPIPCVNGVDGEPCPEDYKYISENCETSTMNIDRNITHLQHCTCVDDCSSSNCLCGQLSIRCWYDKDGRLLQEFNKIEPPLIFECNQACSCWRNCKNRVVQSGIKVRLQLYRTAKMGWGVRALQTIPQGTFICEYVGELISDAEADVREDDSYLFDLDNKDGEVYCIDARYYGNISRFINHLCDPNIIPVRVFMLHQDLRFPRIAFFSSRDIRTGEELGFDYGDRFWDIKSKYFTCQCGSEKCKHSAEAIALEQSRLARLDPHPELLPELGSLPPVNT
Chain of Histone-lysine N-methyltransferase SETD7 (Homo sapiens) (Q8WTS6 whole entry): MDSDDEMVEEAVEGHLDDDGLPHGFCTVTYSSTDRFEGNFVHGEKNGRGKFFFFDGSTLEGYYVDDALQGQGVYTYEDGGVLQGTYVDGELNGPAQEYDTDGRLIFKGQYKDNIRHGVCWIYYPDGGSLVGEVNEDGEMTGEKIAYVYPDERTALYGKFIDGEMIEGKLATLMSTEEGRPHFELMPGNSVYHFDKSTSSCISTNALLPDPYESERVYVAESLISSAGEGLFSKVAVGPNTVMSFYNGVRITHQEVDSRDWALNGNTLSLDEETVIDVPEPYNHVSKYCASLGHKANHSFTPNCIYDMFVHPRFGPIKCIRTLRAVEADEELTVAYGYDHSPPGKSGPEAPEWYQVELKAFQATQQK
Chain of Histone-lysine N-methyltransferase EZH2 (Homo sapiens), Q15910 [Y641C] (Q15910 whole entry Y641C): as the sequence (Q15910 whole entry Y641H) above, with H641C counted along it
Chain of Histone-lysine N-methyltransferase EHMT1 (Homo sapiens) (Q9H9B1 whole entry): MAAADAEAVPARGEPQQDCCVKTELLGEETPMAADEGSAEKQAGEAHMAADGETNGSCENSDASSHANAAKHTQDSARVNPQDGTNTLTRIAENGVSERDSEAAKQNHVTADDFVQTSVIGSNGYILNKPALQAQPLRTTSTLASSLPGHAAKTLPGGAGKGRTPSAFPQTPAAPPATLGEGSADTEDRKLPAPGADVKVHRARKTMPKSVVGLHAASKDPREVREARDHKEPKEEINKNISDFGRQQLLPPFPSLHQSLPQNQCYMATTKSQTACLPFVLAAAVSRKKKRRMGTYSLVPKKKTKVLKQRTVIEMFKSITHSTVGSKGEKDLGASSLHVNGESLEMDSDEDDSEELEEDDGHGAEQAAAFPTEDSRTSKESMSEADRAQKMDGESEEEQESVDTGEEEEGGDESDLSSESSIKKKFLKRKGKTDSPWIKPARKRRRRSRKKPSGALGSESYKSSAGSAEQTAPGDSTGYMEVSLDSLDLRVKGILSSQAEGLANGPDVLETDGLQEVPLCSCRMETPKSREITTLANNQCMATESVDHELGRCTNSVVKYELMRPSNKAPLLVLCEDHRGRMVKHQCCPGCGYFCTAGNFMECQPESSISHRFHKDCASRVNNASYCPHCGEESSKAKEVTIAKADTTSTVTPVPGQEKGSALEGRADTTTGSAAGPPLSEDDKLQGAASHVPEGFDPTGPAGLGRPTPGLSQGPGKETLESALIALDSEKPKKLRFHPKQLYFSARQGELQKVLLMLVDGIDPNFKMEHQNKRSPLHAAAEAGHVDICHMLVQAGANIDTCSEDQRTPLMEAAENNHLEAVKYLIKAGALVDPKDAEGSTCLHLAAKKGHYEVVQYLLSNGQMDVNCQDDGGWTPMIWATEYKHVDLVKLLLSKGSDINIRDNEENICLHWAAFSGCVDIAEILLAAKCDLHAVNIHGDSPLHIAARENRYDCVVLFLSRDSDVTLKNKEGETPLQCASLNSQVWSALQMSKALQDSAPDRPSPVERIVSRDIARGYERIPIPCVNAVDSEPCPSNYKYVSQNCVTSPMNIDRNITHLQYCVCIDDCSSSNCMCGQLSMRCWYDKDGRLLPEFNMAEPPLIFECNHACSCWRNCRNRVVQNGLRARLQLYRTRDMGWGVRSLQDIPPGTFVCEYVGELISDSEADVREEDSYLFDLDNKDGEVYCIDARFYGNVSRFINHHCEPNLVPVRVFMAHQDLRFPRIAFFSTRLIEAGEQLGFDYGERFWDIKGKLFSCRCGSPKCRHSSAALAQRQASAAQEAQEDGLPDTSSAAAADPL
Chain of N-lysine methyltransferase KMT5A (Homo sapiens) (Q9NQR1 whole entry): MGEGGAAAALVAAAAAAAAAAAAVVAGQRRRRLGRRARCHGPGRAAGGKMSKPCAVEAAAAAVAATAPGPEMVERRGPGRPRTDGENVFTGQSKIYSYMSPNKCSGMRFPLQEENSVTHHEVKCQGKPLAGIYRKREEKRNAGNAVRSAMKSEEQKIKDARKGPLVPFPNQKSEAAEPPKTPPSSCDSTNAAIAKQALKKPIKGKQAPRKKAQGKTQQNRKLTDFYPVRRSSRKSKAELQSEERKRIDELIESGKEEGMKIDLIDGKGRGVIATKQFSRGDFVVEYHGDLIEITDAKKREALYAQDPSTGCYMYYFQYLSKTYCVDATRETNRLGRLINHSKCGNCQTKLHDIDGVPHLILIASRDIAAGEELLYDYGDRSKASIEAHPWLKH
Chain of Histone-arginine methyltransferase CARM1 (Homo sapiens) (Q86X55 whole entry): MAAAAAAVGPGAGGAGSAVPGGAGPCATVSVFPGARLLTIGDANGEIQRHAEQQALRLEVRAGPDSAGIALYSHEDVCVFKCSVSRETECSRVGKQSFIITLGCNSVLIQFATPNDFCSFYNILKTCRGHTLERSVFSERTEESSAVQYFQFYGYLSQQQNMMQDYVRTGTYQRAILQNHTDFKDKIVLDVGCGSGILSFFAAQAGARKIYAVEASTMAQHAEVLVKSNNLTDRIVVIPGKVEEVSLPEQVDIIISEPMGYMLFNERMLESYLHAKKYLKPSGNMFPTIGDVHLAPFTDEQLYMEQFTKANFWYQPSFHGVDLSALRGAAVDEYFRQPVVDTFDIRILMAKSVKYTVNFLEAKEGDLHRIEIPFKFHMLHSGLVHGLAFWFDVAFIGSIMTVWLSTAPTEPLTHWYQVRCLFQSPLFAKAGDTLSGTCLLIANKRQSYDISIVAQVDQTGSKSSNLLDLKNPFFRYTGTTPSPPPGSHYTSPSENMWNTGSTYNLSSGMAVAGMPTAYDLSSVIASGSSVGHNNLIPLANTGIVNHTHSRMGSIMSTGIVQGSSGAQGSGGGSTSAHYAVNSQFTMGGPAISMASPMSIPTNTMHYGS
Chain of Histone-lysine N-methyltransferase EZH2 (Homo sapiens), Q15910 [A677G] (Q15910 whole entry A677G): as the sequence (Q15910 whole entry Y641H) above, with H641Y, A677G counted along it

inhibition [1]: 0% | Vd [2]: 9.1 L/kg | bioavailability [4]: 31% | inhibition [5]: 87% | inhibition [6]: 2% | inhibition [7]: 0% | Cmax [8]: 406 ng/mL | inhibition [9]: 95% | CL [10]: 165.9 mL/min/kg | inhibition [11]: 0% | inhibition [12]: 3% | inhibition [13]: 81%
SMILES: CCN(C(=O)C1CC1)c1cc(-c2ccc(N3CCN(CC4CC4)CC3)nc2C)cc(C(=O)NCc2c(C)cc(C)[nH]c2=O)c1C
Activity [3]: Non-Toxic | inhibition in vivo at 50 mg/kg (KARPAS-422): 47.7%
